Results as given in US20100317607A1, “USE OF COMPOUNDS FOR PREPARING ANTI-TUBERCULOSIS AGENTS” (INFECTIOUS DISEASE RESEARCH INSTITUTE, priority 2007, published 2010).
Values after ≈ are worked out from the molar mass of the structure shown. Structures can show the parent of a compound that is named as a salt.

system: H37Rv strain of M. tuberculosis; experiment: Alamar Blue Susceptibility Test (MABA); assay type: cell-based; conditions: H37Rv strain of M. tuberculosis; Alamar Blue

With `c1ccc2c(NC34CC5CC(CC(C5)C3)C4)nc(N3CCOCC3)nc2c1` [Compound 61, N-(1′-Adamantyl)-2-(morpholino)quinazolin-4-amine] the “MABA (TB growth inhibition, colourimetric assay)” value was “+++ (10-50 μM=+++)”.

same assay, conditions: Mycobacterium tuberculosis; H37Rv strain of M. tuberculosis; Alamar Blue; read-out: MABA (TB growth inhibition, colourimetric assay)

Compared with `c1ccc(CNc2nc(N3CCCOCC3)nc3ccccc23)cc1` [Compound 52, N-Benzyl-2-(1,4-oxazepan-4-yl)quinazolin-4-amine], `c1ccc(CNc2nc(N3CCNCC3)nc3ccccc23)cc1` [Compound 51, N-Benzyl-2-(piperazin-1-yl)quinazolin-4-amine] is higher in MIC: 10 to 50 µM (≈ 3.34 to 16.7 µg/mL) for the first, 50 to 128 µM (≈ 16 to 40.9 µg/mL) for the second.

Compared with `COc1cc2nc(NCc3ccc(F)cc3)nc(NCc3ccc(F)cc3)c2cc1OC` [Compound 168, N^2,N^4-bis(4-Fluorobenzyl)-6,7-dimethoxyquinazoline-2,4-diamine], `Fc1ccc(CNc2nc(NCc3ccc(C(F)(F)F)o3)c3ccccc3n2)cc1` [Compound 159, N^2-(4-Fluorobenzyl)-N4-((5-(trifluoromethyl)furan-2-yl)methyl)quinazoline-2,4-diamine hydrochloride] is lower in MIC: 10 to 50 µM (≈ 4.36 to 21.8 µg/mL) for the first, less than 10 µM for the second.

Compared with `COCCNc1nc(NCc2ccc(F)cc2)c2ccccc2n1` [Compound 207, N^4-(4-Fluorobenzyl)-N^2-(2-methoxyethyl)quinazoline-2,4-diamine], `Fc1ccc(CNc2nc(NCC3CCCCC3)nc3ccccc23)cc1` [Compound 208, N^2-(Cyclohexylmethyl)-N^4-(4-fluorobenzyl)quinazoline-2,4-diamine] is lower in MIC: 50 to 128 µM (≈ 16.3 to 41.8 µg/mL) for the first, 10 to 50 µM (≈ 3.64 to 18.2 µg/mL) for the second.

`Fc1ccc(CNc2nc(N3CCOCC3)nc3ccccc23)cc1` [Compound 169, N-(4-Fluorobenzyl)-2-morpholinoquinazolin-4-amine] and `Fc1ccc(CNc2nc(N3CCC(F)(F)CC3)nc3ccccc23)cc1` [Compound 137, 2-(4,4-Difluoropiperidin-1-yl)-N-(4-fluorobenzyl)quinazolin-4-amine] fall in the same range of MIC: 10 to 50 µM (≈ 3.38 to 16.9 µg/mL) for the first, 10 to 50 µM (≈ 3.72 to 18.6 µg/mL) for the second.

`Cc1ccc([C@@H](C)Nc2nc(N3CCCCC3)nc3ccccc23)cc1` [Compound 101, (R)-2-(Piperidin-1-yl)-N-(1-p-tolylethyl)quinazolin-4-amine] and `C[C@H](Nc1nc(N2CCCCC2)nc2ccccc12)c1ccccc1` [Compound 32, (S)—N-(1-Phenylethyl)-2-(piperidin-1-yl)quinazolin-4-amine] fall in the same range of MIC: 10 to 50 µM (≈ 3.46 to 17.3 µg/mL) for the first, 10 to 50 µM (≈ 3.32 to 16.6 µg/mL) for the second.

`Fc1ccc(C2(Nc3nc(N4CCCCC4)nc4ccccc34)CC2)cc1` [Compound 152, N-(1-(4-Fluorophenyl)cyclopropyl)-2-(piperidin-1-yl)quinazolin-4-amine] and `c1ccc(C2(Nc3nc(N4CCCC4)nc4ccccc34)CC2)cc1` [Compound 123, N-(1-Phenylcyclopropyl)-2-(pyrrolidin-1-yl)quinazolin-4-amine] fall in the same range of MIC: 10 to 50 µM (≈ 3.62 to 18.1 µg/mL) for the first, 10 to 50 µM (≈ 3.3 to 16.5 µg/mL) for the second.

First: FC(F)(F)c1ccc(CNc2nc(N3CCCCC3)nc3ccccc23)o1 [Compound 160, 2-(Piperidin-1-yl)-N-((5-(trifluoromethyl)furan-2-yl)methyl)quinazolin-4-amine hydrochloride]
Second: FC1(F)CCN(c2nc(NCc3ccc(C(F)(F)F)o3)c3ccccc3n2)CC1 [Compound 161, 2-(4,4-Difluoropiperidin-1-yl)-N-((5-(trifluoromethyl)furan-2-yl)methyl)quinazolin-4-amine hydrochloride]
The MIC of the first is lower: less than 10 µM for the first, 10 to 50 µM for the second.

First: c1ccc(N2CCN(c3nc(N4CCCCC4)nc4ccccc34)CC2)cc1 [Compound 88, 4-(4-Phenylpiperazin-1-yl)-2-(piperidin-1-yl)quinazoline]
Second: c1ccc(C2CCN(c3nc(N4CCCCC4)nc4ccccc34)CC2)cc1 [Compound 90, 4-(4-Phenylpiperidin-1-yl)-2-(piperidin-1-yl)quinazoline]
The MIC of the first is higher: 50 to 128 µM (≈ 18.7 to 47.8 µg/mL) for the first, 10 to 50 µM (≈ 3.73 to 18.6 µg/mL) for the second.

First: c1ccc(CNc2nc(Nc3ccccc3)nc3ccccc23)cc1 [Compound 23, N^4-Benzyl-N^2-phenylquinazoline-2,4-diamine]
Second: O=C(Nc1nc(NCc2ccccc2)c2ccccc2n1)c1ccccc1 [Compound 73, N-(4-(Benzylamino)quinazolin-2-yl)benzamide]
The MIC of the first is lower: 10 to 50 µM (≈ 3.26 to 16.3 µg/mL) for the first, 50 to 128 µM (≈ 17.7 to 45.4 µg/mL) for the second.

`COc1cccc(CNc2nc(N3CCCCC3)nc3ccccc23)c1` [Compound 82, N-(3-Methoxybenzyl)-2-(piperidin-1-yl)quinazolin-4-amine hydrochloride] and `Clc1ccc2nc(N3CCCCC3)nc(NCc3ccccc3)c2c1` [Compound 71, N-Benzyl-6-chloro-2-(piperidin-1-yl)quinazolin-4-amine] fall in the same range of MIC: 10 to 50 µM for the first, 10 to 50 µM (≈ 3.53 to 17.6 µg/mL) for the second.

`CC(C)(Nc1nc(N2CCCC2)nc2ccccc12)c1ccc(F)cc1` [Compound 121, N-(2-(4-Fluorophenyl)propan-2-yl)-2-(pyrrolidin-1-yl)quinazolin-4-amine] and `Oc1ccc(CNc2nc(N3CCCCC3)nc3ccccc23)cc1` [Compound 164, 4-((2-(Piperidin-1-yl)quinazolin-4-ylamino)methyl)phenol] fall in the same range of MIC: 10 to 50 µM (≈ 3.5 to 17.5 µg/mL) for the first, 10 to 50 µM (≈ 3.34 to 16.7 µg/mL) for the second.

First: FC1(F)CCN(c2nc(NCc3ccc(OC(F)(F)F)cc3)c3ccccc3n2)CC1 [Compound 163, 2-(4,4-Difluoropiperidin-1-yl)-N-(4-(trifluoromethoxy)benzyl)quinazolin-4-amine]
Second: FC1(F)CCN(c2nc(NCc3ccc(C(F)(F)F)cc3)nc3ccccc23)CC1 [Compound 147, 4-(4,4-Difluoropiperidin-1-yl)-N-(4-(trifluoromethyl)benzyl)quinazolin-2-amine]
The MIC of the first is higher: 10 to 50 µM (≈ 4.38 to 21.9 µg/mL) for the first, less than 10 µM for the second.

First: CS(=O)(=O)c1ccc(CNc2nc(N3CCCCC3)nc3ccccc23)cc1 [Compound 94, N-(4-(Methylsulfonyl)benzyl)-2-(piperidin-1-yl)quinazolin-4-amine]
Second: c1ccc(CNc2nc(N3CCCCC3)nc3ccccc23)nc1 [Compound 46, 2-(Piperidin-1-yl)-N-(pyridin-2-ylmethyl)quinazolin-4-amine]
The MIC of the first is lower: 10 to 50 µM (≈ 3.97 to 19.8 µg/mL) for the first, 50 to 128 µM (≈ 16 to 40.9 µg/mL) for the second.

`c1ccc2c(c1)CCN(c1nc(N3CCCC3)nc3ccccc13)C2` [Compound 186, 4-(3,4-Dihydroisoquinolin-2(1H)-yl)-2-(pyrrolidin-1-yl)quinazoline] and `COc1cc2c(cc1OC)CN(c1nc(N3CCCCC3)nc3ccccc13)CC2` [Compound 192, 4-(6,7-Dimethoxy-3,4-dihydroisoquinolin-2(1H)-yl)-2-(piperidin-1-yl)quinazoline] fall in the same range of MIC: 10 to 50 µM (≈ 3.3 to 16.5 µg/mL) for the first, 10 to 50 µM (≈ 4.05 to 20.2 µg/mL) for the second.

First: Fc1ccc(CNc2nc(N3Cc4ccccc4C3)nc3ccccc23)cc1 [Compound 179, N-(4-Fluorobenzyl)-2-(isoindolin-2-yl)quinazolin-4-amine hydrochloride]
Second: Fc1ccc(CNc2nc(N3CCN(Cc4ccccc4)CC3)nc3ccccc23)cc1 [Compound 201, 2-(4-Benzylpiperazin-1-yl)-N-(4-fluorobenzyl)quinazolin-4-amine]
The MIC of the first is lower: less than 10 µM for the first, 10 to 50 µM (≈ 4.28 to 21.4 µg/mL) for the second.

`Fc1ccc(CNc2nc(N3CCC(F)(F)CC3)c3ccccc3n2)c(F)c1` [Compound 148, N-(2,4-Difluorobenzyl)-4-(4,4-difluoropiperidin-1-yl)quinazolin-2-amine] and `FC1(F)CCN(c2nc(NCc3ccc(Cl)cc3)nc3ccccc23)CC1` [Compound 146, N-(4-Chlorobenzyl)-4-(4,4-difluoropiperidin-1-yl)quinazolin-2-amine hydrochloride] fall in the same range of MIC: 10 to 50 µM (≈ 3.9 to 19.5 µg/mL) for the first, 10 to 50 µM for the second.

First: c1ccc(Nc2nc(N3CCCCC3)nc3ccccc23)cc1 [Compound 72, N-Phenyl-2-(piperidin-1-yl)quinazolin-4-amine hydrochloride]
Second: OC[C@H](Cc1ccccc1)Nc1nc(N2CCCCC2)nc2ccccc12 [Compound 143, (S)-3-Phenyl-2-(2-(piperidin-1-yl)quinazolin-4-ylamino)propan-1-ol hydrochloride]
The MIC of the first is higher: 50 to 128 µM for the first, 10 to 50 µM for the second.

`COC[C@H](Cc1ccccc1)Nc1nc(N2CCCCC2)nc2ccccc12` [Compound 144, (S)—N-(1-Methoxy-3-phenylpropan-2-yl)-2-(piperidin-1-yl)quinazolin-4-amine] and `COc1cc2nc(N3CCCCC3)nc(NCc3ccccc3)c2cc1OC` [Compound 70, N-Benzyl-6,7-dimethoxy-2-(piperidin-1-yl)quinazolin-4-amine] fall in the same range of MIC: 10 to 50 µM (≈ 3.77 to 18.8 µg/mL) for the first, 10 to 50 µM (≈ 3.78 to 18.9 µg/mL) for the second.

`FC(F)(F)c1ccc(CNc2nc(N3CCCCC3)c3ccccc3n2)cc1` [Compound 109, 4-(Piperidin-1-yl)-N-(4-(trifluoromethyl)benzyl)quinazolin-2-amine hydrochloride] and `Fc1ccc(CNc2nc(N3CCCC3)nc3cccc(Cl)c23)cc1` [Compound 182, 5-Chloro-N-(4-fluorobenzyl)-2-(pyrrolidin-1-yl)quinazolin-4-amine] fall in the same range of MIC: 10 to 50 µM for the first, 10 to 50 µM (≈ 3.57 to 17.8 µg/mL) for the second.

`O=[N+]([O-])c1ccc(NCCNc2nc(N3CCOCC3)nc3ccccc23)cc1` [Compound 7, N^1-(2-Morpholinoquinazolin-4-yl)-N^2-(4-nitrophenyl)ethane-1,2-diamine] and `O=C(N1CCCC1)N1CCN(c2nc(NCc3ccc(F)cc3)c3ccccc3n2)CC1` [Compound 205, (4-(4-(4-Fluorobenzylamino)quinazolin-2-yl)piperazin-1-yl)(pyrrolidin-1-yl)methanone hydrochloride] fall in the same range of MIC: 50 to 128 µM (≈ 19.7 to 50.5 µg/mL) for the first, 50 to 128 µM for the second.

`CC(C)(C)C(=O)N1CCN(c2nc(NCc3ccccc3)c3ccccc3n2)CC1` [Compound 57, 1-(4-(4-(Benzylamino)quinazolin-2-yl)piperazin-1-yl)-2,2-dimethylpropan-1-one] and `CC(C)(C)OC(=O)N1CCN(c2nc(NCc3ccccc3)c3ccccc3n2)CC1` [Compound 31, tert-Butyl 4-(4-(benzylamino)quinazolin-2-yl)piperazine-1-carboxylate] fall in the same range of MIC: 10 to 50 µM (≈ 4.04 to 20.2 µg/mL) for the first, 10 to 50 µM (≈ 4.2 to 21 µg/mL) for the second.

First: Fc1ccc(CNc2nc(NCc3cc4ccccc4s3)nc3ccccc23)cc1 [Compound 171, N^2-(Benzo[b]thiophen-2-ylmethyl)-N^4-(4-fluorobenzyl)quinazoline-2,4-diamine]
Second: Fc1ccc(CNc2nc(NC3(c4ccc(F)cc4)CC3)c3ccccc3n2)cc1 [Compound 154, N^2-(4-Fluorobenzyl)-N^4-(1-(4-fluorophenyl)cyclopropyl)quinazoline-2,4-diamine]
The MIC of the first is higher: 10 to 50 µM (≈ 4.15 to 20.7 µg/mL) for the first, less than 10 µM for the second.

`COc1cc2c(cc1OC)CN(c1nc(NCc3ccccc3)c3ccccc3n1)CC2` [Compound 181, N-Benzyl-2-(6,7-dimethoxy-3,4-dihydroisoquinolin-2(1H)-yl)quinazolin-4-amine] gave an MIC of 10 to 50 µM (≈ 4.27 to 21.3 µg/mL).
